Experimental data reported in patent EP4745134A1 (Jiangsu Yahong Meditech Co., Ltd., priority 2023, dated 2025).
Like-named read-outs stand apart in the source and are kept apart here.

What was measured:
HCT116 MTAP KO cells = test: Inhibitory activity against cell proliferation (CellTiter Glo, 6 days), HCT116 MTAP KO; assay type: cell-based; conditions: for IC50: Homo sapiens, HCT-116, 144 h, HCT116 MTAP KO cells, 6 days, CellTiter Glo, read-out: HCT116 MTAP KO IC50; for Selectivity HCT 116-WT/ HCT116 MTAP KO: ratio of IC50 HCT116-WT / HCT116 MTAP KO
Summary of the method: (§1)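 HCT116 wild-type or MTAP-knockout cells (250/well, McCoy's 5A + 10% FBS) treated after overnight culture with 8-point 4-fold dilutions from 10000 nM for 6 days at 37 °C. Viability read by CellTiter Glo luminescence on day 7; IC50 calculated against DMSO controls.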

PRMT5-MTA = PRMT5-MTA (Homo sapiens, UniProt O14744); test: Enzymatic inhibitory activity against PRMT5-MTA (AlphaScreen); assay type: biochemical
Summary of the method: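 PRMT5/[…] (1 nM) was preincubated for 30 min at room temperature with 1 µM […] and 2.5 µM SAM, then exposed to compound (10-point, 3-fold from 1000 nM) for 15 min at 23 °C. Histone H4 substrate (5 nM) was added and reacted for 45 min at 23 °C. Symmetric dimethyl-R3 H4 was detected by AlphaScreen and IC50 calculated.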

HCT116-WT cells = test: Inhibitory activity against cell proliferation (CellTiter Glo, 6 days), HCT116-WT; assay type: cell-based; conditions: 144 h, HCT116-WT cells, 6 days, CellTiter Glo; read-out: HCT116-WT IC50
Summary of the method: as §1

Sequence of PRMT5-MTA (O14744 whole entry): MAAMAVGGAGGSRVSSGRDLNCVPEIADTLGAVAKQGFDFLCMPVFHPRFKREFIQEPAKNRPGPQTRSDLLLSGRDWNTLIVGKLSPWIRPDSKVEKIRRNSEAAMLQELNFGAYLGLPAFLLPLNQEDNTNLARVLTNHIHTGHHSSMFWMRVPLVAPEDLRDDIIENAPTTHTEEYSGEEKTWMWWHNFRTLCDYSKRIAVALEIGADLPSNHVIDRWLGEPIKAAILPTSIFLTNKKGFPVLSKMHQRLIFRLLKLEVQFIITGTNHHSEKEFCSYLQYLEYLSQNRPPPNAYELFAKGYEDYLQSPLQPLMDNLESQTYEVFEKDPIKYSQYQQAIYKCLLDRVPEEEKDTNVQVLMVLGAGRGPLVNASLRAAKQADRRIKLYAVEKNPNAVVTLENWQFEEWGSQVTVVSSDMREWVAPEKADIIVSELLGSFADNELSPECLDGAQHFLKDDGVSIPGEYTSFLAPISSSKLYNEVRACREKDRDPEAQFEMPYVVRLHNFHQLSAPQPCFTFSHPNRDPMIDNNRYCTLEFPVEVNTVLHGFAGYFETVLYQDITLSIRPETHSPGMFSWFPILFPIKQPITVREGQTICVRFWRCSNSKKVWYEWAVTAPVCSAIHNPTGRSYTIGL
Sequence of PRMT5-MTA (Q9BQA1 whole entry partner): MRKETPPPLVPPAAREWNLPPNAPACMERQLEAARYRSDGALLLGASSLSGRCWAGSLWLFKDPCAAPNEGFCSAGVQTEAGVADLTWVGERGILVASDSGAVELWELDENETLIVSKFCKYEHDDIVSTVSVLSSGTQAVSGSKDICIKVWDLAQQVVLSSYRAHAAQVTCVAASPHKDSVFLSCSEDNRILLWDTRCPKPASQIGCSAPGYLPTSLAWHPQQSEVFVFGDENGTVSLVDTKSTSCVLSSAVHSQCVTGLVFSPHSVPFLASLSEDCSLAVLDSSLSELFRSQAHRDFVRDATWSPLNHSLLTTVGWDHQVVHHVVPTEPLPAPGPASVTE

Row | Compound | IC50 (HCT116 MTAP KO cells) [nM] | Selectivity HCT 116-WT/ HCT116 MTAP KO (HCT116 MTAP KO cells) | IC50 (PRMT5-MTA; read-out: IC50) [nM] | IC50 (HCT116-WT cells) [nM] | IC50 (PRMT5-MTA) [nM]
1 | Cc1cc2cc(C(=O)N(Cc3ccc(C(F)(F)F)cn3)N(C)c3nccc(C#N)n3)ccc2nc1N [Example 110, 2-amino-N'-(4-cyanopyrimidin-2-yl)-N',3-dimethyl-N-((5-(trifluoromethyl)pyridin-2-yl)methyl)quinoline-6-carbohydrazide] | 172 | 15.71 | 2.5 | 2700 | 
2 | Cc1cc2cc(C(=O)N(Cc3ncc(Br)cc3F)N(C)c3ncccn3)ccc2nc1N [Example 277, 2-amino-N-((5-bromo-3-fluoropyridin-2-yl)methyl)-N',3-dimethyl-N'-(pyrimidin-2-yl)quinoline-6-carbohydrazide] | 79 | 24.23 | 2.2 | 1910 | 
3 | Cc1cc2cc(C(=O)N(Cc3ccc4ccccc4n3)N(C)c3ncccn3)ccc2nc1N [Example 51, 2-amino-N',3-dimethyl-N'-(pyrimidin-2-yl)-N-(quinolin-2-ylmethyl)quinoline-6-carbohydrazide] | 116 | 17.78 | 1.7 | 2060 | 
4 | Cc1cc2cc(C(=O)N(Cc3ccc(C(F)(F)F)cn3)N(C)c3nccc4nc(C)c(C)nc34)ccc2nc1N [Example 272, 2-amino-N'-(2,3-dimethylpyrido[3,4-b]pyrazin-5-yl)-N',3-dimethyl-N-((5-(trifluoromethyl)pyridin-2-yl)methyl)quinoline-6-carbohydrazide] | 242 | 13.13 | 2.6 | 3180 | 
5 | CN(c1ncccn1)N(Cc1ccc(C(F)(F)F)cn1)C(=O)c1ccc2nc(N)c(Br)cc2c1 [Example 303, 2-amino-3-bromo-N'-methyl-N'-(pyrimidin-2-yl)-N-((5-(trifluoromethyl)pyridin-2-yl)methyl)quinoline-6-carbohydrazide] | 110 | 27.20 | 3 | 2990 | 
6 | Cc1cc2cc(C(=O)N(Cc3ccc(C(F)(F)F)cn3)Nc3ncccc3F)ccc2nc1N [Example 56, 2-amino-N'-(3-fluoropyridin-2-yl)-3-met hyl-N-((5-(trifluoromethyl)pyridin-2-yl)methyl)quinoline-6-carbohydrazide] | 139 | 23.99 | 3.5 | 3330 | 
7 | Cc1cc2nc(N)c3cnn(C)c3c2cc1C(=O)N1C[C@H](C)CN1c1ncccc1F (single isomer, unassigned) [Example 465] | 23 | 45.35 | 3.4 | 1040 | 
8 | Cc1cc2cc(C(=O)N(Cc3ccc(-c4cc[nH]c4)cn3)N(C)c3ncccn3)ccc2nc1N [Example 191, N-((5-(1H-pyrrol-3-yl)pyridin-2-yl)methyl)-2-amino-N',3-dimethyl-N'-(pyrimidin-2-yl)quinoline-6-carbohydrazide] | 112 | 20.90 | 2.5 | 2340 | 
9 | CN(c1ncccn1)N(Cc1ccc(C(F)(F)F)cn1)C(=O)c1ccc2nc(N)c(CO)cc2c1 [Example 325, 2-amino-3-hydroxymethyl-N'-methyl-N'-(pyrimidin-2-yl)-N-((5-(trifluoromethyl)pyridin-2-yl)methyl)quinoline-6-carbohydrazide] | 82 | 38.72 | 2.3 | 3180 | 
10 | COC1CN(C(=O)c2cc3c(cc2C)nc(N)c2cnn(C)c23)N(c2ncc(Cl)cc2F)C1 (stereo not drawn) [Example 441, (4-amino-1,7-dimethyl-1H-pyrazolo[4,3-c]quinolin-8-y1)(2-(5-chloro-3-fluoropyridin-2-yl)-4-methoxypyrazolidin-1-yl)met hanone] | 48 | 37.31 | 7.2 | 1790 | 
11 | Cc1cc2nc(N)c3cnn(C)c3c2cc1C(=O)N1CCCN1c1ccc(C2CC2)cn1 [Example 468, (4-amino-1,7-dimethyl-1H-pyrazolo[4,3-c]quinolin-8-yl)(2-(5-cyclopropylpyridin-2-yl)pyrazolidin-1-yl)methanone] | 180 | 24.09 | 3.2 | 4340 | 
12 | Cc1cc2nc(N)c3cnn(C)c3c2cc1C(=O)N1CC(C)CN1c1ncncc1F (stereo not drawn) [Example 395, (4-amino-1,7-dimethyl-1H-pyrazolo[4,3-c]quinolin-8-yl)(2-(5-fluoropyrimidin-4-yl)-4-methylpyrazolidin-1-yl)methanone] | 66 | 41.05 | 4.9 | 2710 | 
13 | Cc1cc2cc(C(=O)N(Cc3ccc(-c4cnc(N5CCN(C)CC5)nc4)cn3)N(C)c3ncccn3)ccc2nc1N [Example 147, 2-amino-N',3-dimethyl-N-((5-(2-(4-methylpiperazin-1-yl)pyrimidin-5-yl)pyridin-2-yl)methyl)-N'-(pyrimidin-2-yl)quinoline-6-carbohydrazide] | 46 | 29.93 | 2.2 | 1380 | 
14 | Cc1cc2nc(N)c3cnn(C)c3c2cc1C(=O)N1CC(CC(F)(F)F)CN1c1ncccc1F (stereo not drawn) [Example 408] | 10 | 20.30 |  | 203 | 4.8
15 | Cc1cc2nc(N)c3cnn(C)c3c2cc1C(=O)N1CC(C)CN1c1cnccn1 (stereo not drawn) [Example 397, (4-amino-1,7-dimethyl-1H-pyrazolo[4,3-c]quinolin-8-yl)(4-methyl-2-(pyrazin-2-yl)pyrazolidin-1-yl)methanone] | 197 | 34.46 | 15 | 6790 | 
16 | COC1CN(C(=O)c2cc3c(cc2Cl)nc(N)c2cnn(C)c23)N(c2ncccc2F)C1 (stereo not drawn) [Example 444, (4-amino-7-chloro-1-methyl-1H-pyrazolo [4,3-c]quinolin-8-yl)(2-(3-fluoropyridin-2-yl)-4-methoxypyrazolidin-1-yl)methanone] | 80 | 15.43 | 3.7 | 1230 | 
17 | Cc1cc2cc(C(=O)N(Cc3ccc(-c4cncc(C(F)(F)F)c4)cn3)N(C)c3ncccn3)ccc2nc1N [Example 175, 2-amino-N',3-dimethyl-N'-(pyrimidin-2-yl)-N-((5'-(trifluoromethyl)-[3,3'-bipyridine]-6-yl)methyl)quinoline-6-carbohydrazide] | 116 | 18.95 | 3.3 | 2200 | 
18 | Cc1cc2nc(N)c3cnn(C)c3c2cc1C(=O)N1CC(C)CN1c1cccc(Br)n1 (stereo not drawn) [Example 404, (4-amino-1,7-dimethyl-1H-pyrazolo[4,3-c]quinolin-8-yl)(2-(6-bromopyridin-2-yl) -4-methylpyrazolidin-1-yl)methanone] | 4.6 | 24.78 | 6.6 | 114 | 
19 | Cc1cc2cc(C(=O)N(Cc3ccc(C(F)(F)F)cn3)N(C)c3ncc4ccccc4n3)ccc2nc1N [Example 109, 2-amino-N',3-dimethyl-N'-(quinazolin-2-yl)-N-((5-(trifluoromethyl)pyridin-2-yl)methyl)quinoline-6-carbohydrazide] | 74 | 14.41 | 1.2 | 1070 | 
20 | CC1CN(C(=O)c2cc3c(cc2Cl)nc(N)c2cnn(C)c23)N(c2ccccc2F)C1 (stereo not drawn) [Example 386, (4-amino-7-chloro-1-methyl-1H-pyrazolo [4,3-c]quinolin-8-yl)(2-(2-fluorophenyl)-4-methylpyrazolidin-1-yl)methanone] | 13 | 25.85 | 6.2 | 336 | 
21 | Cc1cc2nc(N)c3cnn(C)c3c2cc1C(=O)N1CC(C)CN1c1ccccc1Cl (stereo not drawn) [Example 382, (4-amino-1,7-dimethyl-1H-pyrazolo[4,3-c]quinolin-8-yl)(2-(2-chlorophenyl)-4-methylpyrazolidin-1-yl)methanone] | 124 | 12.40 | 4.8 | 1540 | 
22 | CCc1ncsc1-c1ccc(CN(C(=O)c2ccc3nc(N)c(C)cc3c2)N(C)c2ncccn2)nc1 [Example 241, 2-amino-N-((5-(4-ethylthiazol-5-yl)pyridin-2-yl)methyl)-N',3-dimethyl-N'-(pyrimidin-2-yl)quinoline-6-carbohydrazide] | 37 | 18.27 | 7.3 | 676 | 
23 | Cc1cc2cc(C(=O)N(Cc3ccc(C(C)F)cn3)N(C)c3ncccn3)ccc2nc1N (stereo not drawn) [Example 292, 2-amino-N-((5-(1-fluoroethyl)pyridin-2-yl)methyl)-N',3-dimethyl-N'-(pyrimidin-2-yl)q uinoline-6-carbohydrazide] | 50 | 30.30 | 1.4 | 1520 | 
24 | Cc1cc2cc(C(=O)N(Cc3ccc(-c4ccn(C)c4)cn3)N(C)c3ncccn3)ccc2nc1N [Example 148, 2-amino-N',3-dimethyl-N-((5-(1-methyl-1H-pyrrol-3-yl)pyridin-2-yl)methyl)-N'-(pyrimidin-2-yl)quinoline-6-carbohydrazide] | 179 | 17.25 | 1 | 3090 | 
